Test results taken from patent US20250120961A1, “P53 MODULATORS” (Nested Therapeutics, Inc., priority 2023, published 2025).

Target: His-tagged p53-Y220C DNA binding domain (Homo sapiens, UniProt P04637, Y220C)
Experiment: Biochemical p53-Y220C and DNA binding assay (HTRF)
Settings: inflection point of 10 points dose titration, 4 parameter curve fit; p53-Y220C DBD 100 nM, biotinylated dsDNA 200 nM, 27 to 29° C.; read-out: HTRF IP
Source text: Biological Example 1. Biochemical p53-Y220C and DNA Binding Assay
The compounds of this invention can bind to p53-Y220C and increase the ability of the mutant p53 to bind to DNA at higher temperatures. His-tagged p53-Y220C DNA binding domain containing amino acid 94-312 is used to measure DNA binding activities in vitro with the sequence described below. (SEQ ID NO: 1: […]. Biotin labeled double strand DNA (dsDNA) containing consensus p53 binding sequence (SEQ ID NO: 2: Forward: 5′-(biotin)-[…]-3′; Reverse: 5′-(biotin)-[…]-3′) is used to measure protein-DNA binding activities. Compounds, His-tagged p53-Y220C DBD proteins (100 nM), and biotinylated dsDNA (200 nM) were mixed in ice-cold assay buffer containing DPBS, 20 mM NaCl, and 0.5% BAS, and incubated at 4° C. overnight in 384-well plate. Plates were transferred to incubator at 27 to 29° C. with constant shaking for 60 minutes. Equal volume of Homogeneous Time-Resolved Fluorescence (HTRF) dyes containing mAb anti-6HIS Tb cryptate gold and d2 labeled streptavidin in the assay buffer was added to each well and incubated at 27 to 29° C. with constant shaking for 60 minutes. The plate was read using Envision multimode plate reader. Reference compound 1 was used as high control and DMSO was used as low control. The percentage activation (A %) of protein-DNA binding by compounds was normalized by setting up high control (reference compound) as […] and low control (DMSO) as 0% (A %=(HTRF ratio of compound-HTRF ratio of low control)/(HTRF ratio of high control-HTRF ratio of low control)*500). 10 points dose titration curves for each compound were analyzed by 4 parameter curve fit and inflection point (IP) was reported. Reference compound 1 is shown below Table 1. Compounds of the invention are active in the HTRF assay. Data in Table 1 collected using Biological Example 1.

Compound	EC50 [µM]
OC1(CO/N=C/c2sc3c(N[C@@H]4CNC[C@@H]4F)cccc3c2CC(F)(F)F)CCCNC1 (stereo partly drawn) [Example 1-32, (E)-7-(((3R,4S)-4-fluoropyrrolidin-3-yl)amino)-3-(2,2,2-trifluoroethyl)benzo[b]thiophene-2-carbaldehyde O-((3-hydroxypiperidin-3-yl)methyl) oxime]	> 1
OC1CNCCC1O/N=C/c1sc2c(N[C@@H]3CNC[C@@H]3F)cccc2c1CC(F)(F)F (stereo partly drawn) [Example 1-33, (E)-7-(((3R,4S)-4-fluoropyrrolidin-3-yl)amino)-3-(2,2,2-trifluoroethyl)benzo[b]thiophene-2-carbaldehyde O-(3-hydroxypiperidin-4-yl) oxime]	> 1
OC(COCc1ccccc1)CO/N=C/c1sc2c(N[C@@H]3CNC[C@@H]3F)cccc2c1CC(F)(F)F (stereo partly drawn) [Example 1-34, (E)-7-(((3R,4S)-4-fluoropyrrolidin-3-yl)amino)-3-(2,2,2-trifluoroethyl)benzo[b]thiophene-2-carbaldehyde O-(3-(benzyloxy)-2-hydroxypropyl) oxime]	> 1
OC1CCCCC1O/N=C/c1sc2c(N[C@@H]3CNC[C@@H]3F)cccc2c1CC(F)(F)F (stereo partly drawn) [Example 1-35, (E)-7-(((3R,4S)-4-fluoropyrrolidin-3-yl)amino)-3-(2,2,2-trifluoroethyl)benzo[b]thiophene-2-carbaldehyde O-(2-hydroxycyclohexyl) oxime]	0.1 to 1
OC1CNCC1O/N=C/c1sc2c(N[C@@H]3CNC[C@@H]3F)cccc2c1CC(F)(F)F (stereo partly drawn) [Example 1-36, (E)-7-(((3R,4S)-4-fluoropyrrolidin-3-yl)amino)-3-(2,2,2-trifluoroethyl)benzo[b]thiophene-2-carbaldehyde O-(4-hydroxypyrrolidin-3-yl) oxime]	0.1 to 1
OC1COCC1O/N=C/c1sc2c(N[C@@H]3CNC[C@@H]3F)cccc2c1CC(F)(F)F (stereo partly drawn) [Example 1-37, (E)-7-(((3R,4S)-4-fluoropyrrolidin-3-yl)amino)-3-(2,2,2-trifluoroethyl)benzo[b]thiophene-2-carbaldehyde O-(4-hydroxytetrahydrofuran-3-yl) oxime]	< 0.1
CS(=O)(=O)N1CC(O)C(O/N=C/c2sc3c(N[C@@H]4CNC[C@@H]4F)cccc3c2CC(F)(F)F)C1 (stereo partly drawn) [Example 1-38, (E)-7-(((3R,4S)-4-fluoropyrrolidin-3-yl)amino)-3-(2,2,2-trifluoroethyl)benzo[b]thiophene-2-carbaldehyde O-(4-hydroxy-1-(methylsulfonyl)pyrrolidin-3-yl) oxime]	0.1 to 1
CN1CC[C@@H](Nc2cccc3c(CC(F)(F)F)c(/C=N/OCC(C)(C)O)sc23)[C@@H](F)C1 [Example 1-39, (E)-7-(((3S,4R)-3-fluoro-1-methylpiperidin-4-yl)amino)-3-(2,2,2-trifluoroethyl)benzo[b]thiophene-2-carbaldehyde O-(2-hydroxy-2-methylpropyl) oxime]	< 0.1
OC1(CO/N=C/c2sc3c(N[C@@H]4CNC[C@@H]4F)cccc3c2CC(F)(F)F)CCOC1 (stereo partly drawn) [Example 1-40, (E)-7-(((3R,4S)-4-fluoropyrrolidin-3-yl)amino)-3-(2,2,2-trifluoroethyl)benzo[b]thiophene-2-carbaldehyde O-((3-hydroxytetrahydrofuran-3-yl)methyl) oxime]	0.1 to 1

Second part, the molecule after the results:

EC50 [µM]	Compound
> 1	CN1CC[C@@H](Nc2cccc3c2cc(/C=N/OCC2CC2)n3CC(F)(F)F)[C@@H](F)C1 [Example 2-1, (E)-4-(((3S,4R)-3-fluoro-1-methylpiperidin-4-yl)amino)-1-(2,2,2-trifluoroethyl)-1H-indole-2-carbaldehyde O-cyclopropylmethyl oxime]
> 1	CO/N=C/c1cc2c(N[C@@H]3CCN(C)C[C@@H]3F)cccc2n1CC(F)(F)F [Example 2-2, (E)-4-(((3S,4R)-3-fluoro-1-methylpiperidin-4-yl)amino)-1-(2,2,2-trifluoroethyl)-1H-indole-2-carbaldehyde O-methyl oxime]
> 1	CN1CC[C@@H](Nc2cccc3c2cc(/C=N/OCc2ccccc2)n3CC(F)(F)F)[C@@H](F)C1 [Example 2-3, (E)-4-(((3S,4R)-3-fluoro-1-methylpiperidin-4-yl)amino)-1-(2,2,2-trifluoroethyl)-1H-indole-2-carbaldehyde O-benzyl oxime]
> 1	CN1CC[C@@H](Nc2cccc3c2cc(/C=N\OCc2ccccc2)n3CC(F)(F)F)[C@@H](F)C1 [Example 2-4, (Z)-4-(((3S,4R)-3-fluoro-1-methylpiperidin-4-yl)amino)-1-(2,2,2-trifluoroethyl)-1H-indole-2-carbaldehyde O-benzyl oxime]
> 1	CN1CC[C@@H](Nc2cccc3c2cc(/C=N\Oc2ccccc2)n3CC(F)(F)F)[C@@H](F)C1 [Example 2-5, (Z)-4-(((3S,4R)-3-fluoro-1-methylpiperidin-4-yl)amino)-1-(2,2,2-trifluoroethyl)-1H-indole-2-carbaldehyde O-phenyl oxime]
> 1	CN1CC[C@@H](Nc2cccc3c2cc(/C=N/Oc2ccccc2)n3CC(F)(F)F)[C@@H](F)C1 [Example 2-6, (E)-4-(((3S,4R)-3-fluoro-1-methylpiperidin-4-yl)amino)-1-(2,2,2-trifluoroethyl)-1H-indole-2-carbaldehyde O-phenyl oxime]
> 1	CNC(=O)CO/N=C/c1cc2c(N[C@@H]3CCN(C)C[C@@H]3F)cccc2n1CC(F)(F)F [Example 2-7, 2-((((E)-(4-(((3S,4R)-3-fluoro-1-methylpiperidin-4-yl)amino)-1-(2,2,2-trifluoroethyl)-1H-indol-2-yl)methylene)amino)oxy)-N-methylacetamide]
0.1 to 1	CN1CC[C@@H](Nc2cccc3c2cc(/C=N/OCC(=O)Nc2ccccc2)n3CC(F)(F)F)[C@@H](F)C1 [Example 2-8, 2-((((E)-(4-(((3S,4R)-3-fluoro-1-methylpiperidin-4-yl)amino)-1-(2,2,2-trifluoroethyl)-1H-indol-2-yl)methylene)amino)oxy)-N-phenylacetamide]
0.1 to 1	CN1CC[C@@H](Nc2cccc3c2cc(/C=N/OCc2nc4ccccc4[nH]2)n3CC(F)(F)F)[C@@H](F)C1 [Example 2-9, (E)-4-(((3S,4R)-3-fluoro-1-methylpiperidin-4-yl)amino)-1-(2,2,2-trifluoroethyl)-1H-indole-2-carbaldehyde O-((1H-benzo[d]imidazol-2-yl)methyl)oxime]
0.1 to 1	F[C@H]1CNCC[C@H]1Nc1cccc2c(CC(F)(F)F)c(/C=N/OCC3CC3)sc12 [Example 2-10, (E)-7-(((3S,4R)-3-fluoropiperidin-4-yl)amino)-3-(2,2,2-trifluoroethyl)benzo[b]thiophene-2-carbaldehyde O-cyclopropylmethyl oxime]
0.1 to 1	F[C@H]1CNCC[C@H]1Nc1cccc2c(CC(F)(F)F)c(/C=N\OCC3CC3)sc12 [Example 2-11, (Z)-7-(((3S,4R)-3-fluoropiperidin-4-yl)amino)-3-(2,2,2-trifluoroethyl)benzo[b]thiophene-2-carbaldehyde O-cyclopropylmethyl oxime]
0.1 to 1	OC(CO/N=C/c1sc2c(N[C@@H]3CCNC[C@@H]3F)cccc2c1CC(F)(F)F)c1ccccc1 (stereo partly drawn) [Example 2-12, (E)-7-(((3S,4R)-3-fluoropiperidin-4-yl)amino)-3-(2,2,2-trifluoroethyl)benzo[b]thiophene-2-carbaldehyde O-(2-hydroxy-2-phenylethyl) oxime]
